Data taken from patent US6682904B1, “Specific inhibitors of hyaluronidase 2, and methods of identifying and using same” (Deliatroph Pharmaceuticals, Inc., priority 2002, dated 2004).

Legend:
[1] = target: T1, human plasma hyaluronidase (Homo sapiens, UniProt Q12794); assay: Effect of EDTA and added calcium on activity of purified human plasma hyaluronidase; type: biochemical; details: purified preparations of human plasma hyaluronidase
T1 construct: made in house
T1 sequence (Q12794 22-435): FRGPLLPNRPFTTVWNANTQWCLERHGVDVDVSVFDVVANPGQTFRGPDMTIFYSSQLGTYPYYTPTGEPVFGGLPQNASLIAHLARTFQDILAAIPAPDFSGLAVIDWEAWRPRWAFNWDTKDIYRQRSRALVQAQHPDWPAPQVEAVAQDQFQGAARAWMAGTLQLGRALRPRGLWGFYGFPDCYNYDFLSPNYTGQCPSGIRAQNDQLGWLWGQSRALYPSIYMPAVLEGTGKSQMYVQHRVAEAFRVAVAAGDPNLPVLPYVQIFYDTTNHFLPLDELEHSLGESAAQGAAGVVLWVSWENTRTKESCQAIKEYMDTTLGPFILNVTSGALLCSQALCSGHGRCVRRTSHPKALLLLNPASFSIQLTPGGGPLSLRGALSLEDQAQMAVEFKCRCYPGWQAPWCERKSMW
Experimental: One hundred mg of human umbilical cord HA (ICN Pharmaceuticals; Irvine Calif.) was dissolved in 0.1 M MES, pH 5.0, to a final concentration of 1 mg/ml and allowed to dissolve for at least 24 hr at 4° C. prior to coupling of biotin. Sulfo-NHS (Pierce; Rockford Ill.) was added to the hyaluronate MES solution to a final concentration of 0.184 mg/ml. Biotin hydrazide (Pierce) was dissolved in DMSO as a stock solution of 100 mM and added to the HA solution to a final concentration of 1 mM. A stock solution of 1-ethyl-3-(3-dimethylaminopropyl) carbidodiimide (EDAC) was prepared as a 100 mM stock solution in distilled water and added to the HA biotin solution at a final concentration of 30 mM. This solution was left stirring overnight at 4° C. […]
(§1) The reaction was terminated by the addition of 200 μl/well of 6M Guanidine HCl followed by three washes of 300 μl/well with PBS, 2 M NaCl, 50 mM MgSO4, 0.05% TWEEN 20 detergent (Buffer B). […] The plate was incubated in the dark for 10-15 min, then read using a 492 nm filter in an ELISA plate reader (Titertek Multiskan PLUS; ICN) monitored by computer using the Delta Soft II plate reader software from Biometallics (Princeton N.J.). A standard curve using the bovine testicular hyaluronidase was generated by a four parameter curve fit of the commercial hyaluronidase preparation and unknown samples were interpolated through their absorbance at 492 nm.

[2] = tested on: human foreskin primary keratinocyte cultures; assay: Hyaluronidase activity in primary foreskin keratinocyte cultures after calcium-induced differentiation; type: cell-based; details: 1.5 mM calcium compared to 0.05 mM calcium, 72 hr in culture
Experimental: Hyaluronidase activity also was characterized in normal keratinocytes. Primary foreskin keratinocyte cultures were generated from circumcision tissue from […]. Briefly, tissue was washed 5× in PBS with penicillin, streptomycin, and fungizone, followed by digestion overnight at 4° C. in dispase. Epithelium was stripped from mesenchymal tissue with forceps and digested in trypsin followed by plating on collagen-coated plates in KGM (keratinocyte growth medium) with 0.05 mM calcium (Clonetics; San Diego Calif.). Cells were used between the first and fourth passage. To test the effects of induction of differentiation on hyaluronidase activity, cells were plated into 6 well plates and, at confluence, the medium was either replaced with fresh KGM with 0.05 mM calcium or changed to KGM with 1.5 mM calcium.
Cell layers and conditioned media were harvested after 72 hr in culture. Cell layers were harvested with 60 mM octylglucoside with 50 U/ml DNase I (Boehringer Mannheim; Indianapolis Ind.) and Complete™ protease inhibitor cocktail (Boehringer Mannheim) in PBS. Cells were extracted for 30 min on ice followed by centrifugation at 10,000× g for 10 min. Conditioned media from each sample was treated with octylglucoside and protease inhibitors. […] Activity was expressed as rTRU/mg cellular protein.

[3] = Microtiter-based hyaluronidase assay on immobilized biotinylated HA, pH dependence of enzyme activity; type: biochemical
Experimental: One hundred mg of human umbilical cord HA (ICN Pharmaceuticals; Irvine Calif.) was dissolved in 0.1 M MES, pH 5.0, to a final concentration of 1 mg/ml and allowed to dissolve for at least 24 hr at 4° C. prior to coupling of biotin. Sulfo-NHS (Pierce; Rockford Ill.) was added to the hyaluronate MES solution to a final concentration of 0.184 mg/ml. Biotin hydrazide (Pierce) was dissolved in DMSO as a stock solution of 100 mM and added to the HA solution to a final concentration of 1 mM. A stock solution of 1-ethyl-3-(3-dimethylaminopropyl) carbidodiimide (EDAC) was prepared as a 100 mM stock solution in distilled water and added to the HA biotin solution at a final concentration of 30 mM. This solution was left stirring overnight at 4° C. Unlinked biotin and EDAC were removed by dialysis against water with 3 changes of 1000× volume of water. The dialyzed, biotinylated HA (bHA) was aliquoted and stored at −20° C. for up to several months.
Sulfo-NHS was diluted to 0.184 mg/ml in water with the bHA at a concentration of 0.2 mg/ml and pipetted into 96 well COVALINK-NH plates (NUNC; Placerville N.J.) at 50 μl per well. EDAC was diluted to 0.123 mg/ml in water and pipetted into the COVALINK-NH plates with the HA solution resulting in a final concentration of 10 μg/well hyaluronate and 6.15 μg/well EDAC. […]
as §1, with “nm. […]” for “nm.”

O=C(O)CN(CCN(CC(=O)O)CC(=O)O)CC(=O)O [EDTA, reference compound]
inhibitory effect on enzyme activity [1]: no inhibitory effect

[Ca+2] [calcium]
stimulatory effect on enzyme activity ([1]; added calcium): nor did added calcium have a stimulatory effect
increase in hyaluronidase activity in conditioned media and cell layer [2]: approximately 25 fold

B1: Recombinant human plasma hyaluronidase: immunoaffinity purified recombinant human plasma hyaluronidase (HYAL1), acid-active enzyme (protein)
chain: T1 sequence (Q12794 22-435)
pH optimum of hyaluronidase activity ([3]; 0.1 rTRU enzyme, 50 mM buffers pH 3-8 without NaCl, 30 min at 37° C.): 3.8 pH
enzyme activity above pH 4.5 ([3]; above pH 4.5): no detectable activity
enzyme activity at neutral pH ([3]; neutral pH): no activity was detected
